# Read-outs that look alike come from different tables or passages of the source.
# Legend:
# [1] = tested on: BV2 microglia; experiment: Cytotoxicity on BV2 microglia by CCK-8 assay; conditions: read-out: Cytotoxic activities on BV2 cells, IC50; BV2 cells, 24 h, CCK-8, OD 450 nm, repeated three times
# Procedure: (§1) A drug-containing medium (0, 50, 100, 200, 400, and 600 μM) was added to each well of the administration group, and an equal volume of medium was also added to the blank group, and they were incubate at 37°C and 5% CO2 for 24 h. After the culture, 10 μl of CCK-8 was added to each well and incubated for 1–4 h at 37°C and 5% CO2. The absorbance (OD) value of each well at 450 nm was detected with a microplate reader, repeating three times, and its IC50 value was calculated.
# [2] = tested on: NO production in LPS-induced BV2 microglia; experiment: NO production inhibition in LPS-induced BV2 microglia (Griess reaction); type: cell-based; conditions: for IC50: read-out: Inhibitory effects on NO in LPS-induced BV-2 cells, IC50; for Inhibitory effect on neuroinflammation (in words): LPS-induced BV2 microglia neuroinflammation model
# Procedure: The BV2 microglia cells were plated into a 96-well plate. After adding LPS (1 μg/ml) to each well for 12 h, it was treated with or without compounds of various concentrations (0, 100, 200, 300, 400, and 600 μM) for 12 h. The NO production in the supernatant was measured by the Griess reaction. The absorbance at 570 nm was measured using a microplate reader. The NO concentration and the inhibitory rate were calculated through a calibration curve. Quercetin was used as the positive control. Experiments were repeated three times.
# [3] = Cytotoxicity on BV2 microglia by CCK-8 assay; conditions: mouse, BV2 microglia cells
# Procedure: as §1
# [4] = LPS 1 μg/ml, Griess reaction, n = 3, x ± s, IC50 > 100 μM deemed inactive
"IC50 [2, 4] [µM]","IC50 ([2]; Mus musculus, BV-2) [µM]",Compound,IC50 [1] [µM],Inhibitory effect on neuroinflammation (in words) [2],IC50 at 24 h [3] [µM]
> 100,–,3-O-6′-O-methyl-β-D-glucuronopy-ranoside of gypsogenin [Compound 15],157 ± 11,–,–
> 100,–,"3-O-α-arabinopyranosyl-(1→2)-β-glucopyranoside-30-norolean-12,20(29)-dien-28-oic acid [Compound 28]",565 ± 48,–,–
> 100,–,3-O-α-rhamnopyranose- (1→2)-α-arabinopyranosyl-29-hydroxy-olean-12-en-28-oic acid [Compound 17],235 ± 21.1,–,–
> 100,–,"C[C@@H]1O[C@@H](O[C@H]2[C@H](O[C@H]3CC[C@]4(C)[C@H]5CC=C6[C@@H]7CC(C)(C)CC[C@]7(C(=O)O)CC[C@@]6(C)[C@]5(C)CC[C@H]4C3(C)C)OC[C@H](O)[C@@H]2O)[C@H](O)[C@H](O)[C@H]1O [Compound 18, 3-O-[α-L-rhamnopyranosyl-(1→2)-α-L-arabinopyranosyl] oleanolic acid]",204 ± 19.8,–,–
> 100,–,"CC1(C)CC[C@]2(C(=O)O[C@@H]3O[C@H](CO)[C@@H](O)[C@H](O)[C@H]3O)CC[C@]3(C)C(=CC[C@@H]4[C@@]5(C)CC[C@H](O[C@@H]6OC[C@H](O)[C@H](O)[C@H]6O)[C@@](C)(CO)[C@@H]5CC[C@]43C)[C@@H]2C1 [Compound 19, HN-saponin F]",466 ± 35.1,–,–
> 100,–,"CC1(C)CC[C@]2(C(=O)O)CC[C@]3(C)C(=CC[C@@H]4[C@@]5(C)CC[C@H](O[C@@H]6OC[C@H](O)[C@H](O)[C@H]6O[C@@H]6O[C@H](CO)[C@@H](O)[C@H](O)[C@H]6O)C(C)(C)[C@@H]5CC[C@]43C)[C@@H]2C1 [Compound 20, saponin PE]",136 ± 10.6,–,–
> 100,–,"CC1(C)CC[C@]2(C(=O)O)CC[C@]3(C)C(=CC[C@@H]4[C@@]5(C)CC[C@H](O[C@@H]6O[C@H](CO)[C@@H](O)[C@H](O)[C@H]6O[C@@H]6O[C@H](CO)[C@@H](O)[C@H](O)[C@H]6O)C(C)(C)[C@@H]5CC[C@]43C)[C@@H]2C1 [Compound 24, 3-O-β-D-glucopyranosyl-(1→2)-β-D-glucopyranosyl oleanolic acid]",189 ± 15.2,–,–
–,10.5 ± 1.07,"O=c1c(O)c(-c2ccc(O)c(O)c2)oc2cc(O)cc(O)c12 [Quercetin, reference compound]",–,–,–
> 100,–,lucyoside F [Compound 22],146 ± 12.7,–,–
> 100,–,lucyoside H [Compound 23],131 ± 10,–,–
> 100,–,paritriside E [Compound 27],133 ± 11.8,–,–

# Continued, compound first:
Compound,"IC50 [2, 4] [µM]","IC50 ([2]; Mus musculus, BV-2) [µM]",IC50 [1] [µM],Inhibitory effect on neuroinflammation (in words) [2],IC50 at 24 h [3] [µM]
3-O-β-D-(6′-O-methyl-glucuronopyranosyl) oleanolic acid [Compound 16],–,–,102 ± 9.77,moderate inhibitory effects on neuroinflammation,–
"3-O-β-D-glucuronopyranosyl-3β,16α-dihydroxyolean-12-en-28-oic acid [Compound 10]",–,–,215 ± 20.2,moderate inhibitory effects on neuroinflammation,–
"3-[(O-β-D-glucopyranosyl-(1→3)-α-L-arabinopyranosyl)oxy]-30- noroleana-12,20(29)-dien-28-oic acid [Compound 29]",> 100,–,127 ± 10.6,–,–
"CC1(CO)CCC2(C(=O)O)CCC3(C)C(=CCC4C5(C)CCC(OC6OCC(O)C(OC7OC(CO)C(O)C(O)C7O)C6O)C(C)(C)C5CCC43C)C2C1 (stereo not drawn) [Compound 1, 3-O-β-glucopyranosyl-(1→3)-β-arabinopyranosyl-29-hydroxy-olean-12-en-28-oic acid]",–,> 100,–,–,143 ± 10.9
"CCOC(=O)C1OC(OC2CCC3(C)C(CCC4(C)C3CC=C3C5CC(C)(C)CCC5(C(=O)OC5OC(CO)C(O)C(O)C5O)CCC34C)C2(C)CO)C(O)C(O)C1O [Compound 2, 3-O-β-D-6′-ethyl-glucuronopyranosyl-23-hydroxy-olean-12-en-28-β-D-glucopyranosyl]",–,> 100,–,–,157 ± 12.7
"CC1OC(OC2C(OC3CCC4(C)C(CCC5(C)C4CC=C4C6CC(C)(O)CCC6(C(=O)O)CCC45C)C3(C)C)OCC(O)C2O)C(O)C(O)C1O [Compound 3, 3β-[(α-L-rhamnopyranosyl-(1→2)-α-L-arabinopyranosyl)oxy]-20α,30-dihydroxy-norolean-12-en-28-oic acid]",–,> 100,–,–,150 ± 13.6
"CC1(C(=O)O)CCC2(C(=O)O)CCC3(C)C(=CCC4C5(C)CCC(OC6OCC(O)C(O)C6OC6OC(CO)C(O)C(O)C6O)C(C)(C)C5CCC43C)C2C1 [Compound 4, 3β-[(O-β-D-glucopyranosyl-(1→2)-α-L-arabinopyranosyl)oxy]olean12-ene-28,29-dioic acid]",–,> 100,–,–,246 ± 21.2
"COC(=O)C1OC(OC2CCC3(C)C(CCC4(C)C3CCC3C5=CC(C)(C)CCC5(C(=O)O)CCC34C)C2(C)CO)C(O)C(O)C1O [Compound 5, 3β,23-dihydroxyolean-18-en-28-oic acid 3-O-β-D-glucuronopyranoside-6′-O-methyl ester]",–,< 100,–,moderate inhibitory effects on neuroinflammation,236 ± 20.2
"CC1(C)CC[C@]2(C(=O)O)CC[C@]3(C)C(=CC[C@@H]4[C@@]5(C)CC[C@H](O[C@@H]6OC[C@H](O)[C@H](O)[C@H]6O)[C@@](C)(CO)[C@@H]5CC[C@]43C)[C@@H]2C1 [Compound 7, hederagenin glycosides 3-O-α-L-arabinopyranoside]",> 100,–,124 ± 10.6,–,–
"CC1(C)CC[C@]2(C(=O)O)CC[C@]3(C)C(=CC[C@@H]4[C@@]5(C)CC[C@H](O[C@@H]6O[C@H](C(=O)O)[C@@H](O)[C@H](O)[C@H]6O)C(C)(C)[C@@H]5CC[C@]43C)[C@@H]2C1 [Compound 8, oleanolic acid 3-O-β-D-glucuronopyranoside]",> 100,–,107 ± 9.59,–,–
"CC1(C)CC[C@]2(C(=O)O)CC[C@]3(C)C(=CC[C@@H]4[C@@]5(C)CCC(O[C@@H]6O[C@H](C(=O)O)[C@@H](O)[C@H](O)[C@H]6O)[C@@](C)(C=O)[C@@H]5CC[C@]43C)C2C1 (stereo partly shown) [Compound 11, gypsogenin 3-O-glucuronide]",> 100,–,402 ± 39.5,–,–
"CC1(C)CCC2(C(=O)O)CCC3(C)C(=CCC4C5(C)CCC(OC6OCC(O)C(OC7OC(CO)C(O)C(O)C7O)C6O)C(C)(C)C5CCC43C)C2C1 [Compound 21, oleanolic acid 3-O-β-D-glucopyranosyl (1→3)-α-L-arabinopyranoside]",–,–,306 ± 28,–,–
"CC1OC(OC2C(OC3CCC4(C)C(CCC5(C)C4CC=C4C6CC(C)(C)CCC6(C(=O)OC6OC(CO)C(O)C(O)C6O)CCC45C)C3(C)C)OCC(O)C2O)C(O)C(O)C1O [Compound 26, oleanolic acid 3-O-α-L-rhamnopyranosyl(1→2)-α-L-arabinopyranosyl-28-O-β-D-glucopyranosyl ester]",–,–,160 ± 13.5,–,–
HN-saponin D1 [Compound 6],> 100,–,108 ± 8.24,–,–
HN-saponin K [Compound 9],> 100,–,241 ± 18.6,–,–
elatoside G [Compound 12],–,–,264 ± 22.9,moderate inhibitory effects on neuroinflammation,–
hederagenin-3-O-β-D- glucuronopyranoside 6′-O-methyl ester [Compound 13],–,–,–,moderate inhibitory effects on neuroinflammation,–
tragopogonsaponin A methyl ester [Compound 14],> 100,–,585 ± 45.6,–,–

# From paper PMC8899614, “Triterpenoid Saponins From the Fruit of Acanthopanax senticosus (Rupr. & Maxim.) Harms” (Frontiers in Chemistry, 2022)
